Laboratory results reported in ChEMBL document CHEMBL1150090, “Agastaquinone, a new cytotoxic diterpenoid quinone from Agastache rugosa” (1995).
Values after ≈ are worked out from the molar mass of the structure shown.

Columns and labels:
Type in all cases: functional
Settings in all cases: read-out: ED50 (the source's name)
A549 = assay: Cytotoxicity against human A549 cells
SK-OV-3 = assay: Cytotoxicity against human SKOV3 cells
SK-MEL-2 = assay: Cytotoxicity against human SK-MEL-2 cells
XF498 = assay: Cytotoxicity against human XF498 cells
HCT-15 = assay: Cytotoxicity against human HCT15 cells

| SMILES | EC50 (A549) [mg/L] | EC50 (SK-OV-3) [mg/L] | EC50 (SK-MEL-2) [mg/L] | EC50 (XF498) [mg/L] | EC50 (HCT-15) [mg/L] |
| --- | --- | --- | --- | --- | --- |
| COC1=C(C(C)C)C(=O)c2c(O)cc3c(c2C1=O)C=C/C(=N\O)C3(C)C | 9.1 (≈ 25.6 µM) | 18.7 (≈ 52.6 µM) | 11.8 (≈ 33.2 µM) | 8.5 (≈ 23.9 µM) | 7 (≈ 19.7 µM) |
| COC1=C(C(C)C)C(=O)c2c(O)cc3c(c2C1=O)C=CC(=O)C3(C)C [AGASTAQUINONE] | 6.8 (≈ 20 µM) | 12.8 (≈ 37.6 µM) | 4.1 (≈ 12 µM) | 1.8 (≈ 5.29 µM) | 5.2 (≈ 15.3 µM) |
